According to ChEMBL document CHEMBL1137483, “Novel chalcones as probes for in vivo imaging of beta-amyloid plaques in Alzheimer's brains” (Bioorg Med Chem, 2007):

How the values were obtained:
Kidney [1] = assay: Biodistribution in ddY mouse kidney at 0.2 to 0.3 uCi, iv after 2 mins; assay type: ADME, organism-based; settings: in vivo
Brain [2] = assay: Biodistribution in ddY mouse brain at 0.2 to 0.3 uCi, iv after 30 mins; assay type: ADME, organism-based; settings: in vivo, 0.5 h
Brain [3] = assay: Biodistribution in ddY mouse brain at 0.2 to 0.3 uCi, iv after 2 mins; assay type: ADME, organism-based; settings: in vivo
Spleen [4] = assay: Biodistribution in ddY mouse spleen at 0.2 to 0.3 uCi, iv after 2 mins; assay type: ADME, organism-based; settings: in vivo
Lung [5] = assay: Biodistribution in ddY mouse lung at 0.2 to 0.3 uCi, iv after 2 mins; assay type: ADME, organism-based; settings: in vivo
Kidney [6] = assay: Biodistribution in ddY mouse kidney at 0.2 to 0.3 uCi, iv after 30 mins; assay type: ADME, organism-based; settings: in vivo, 0.5 h
Blood [7] = assay: Biodistribution in ddY mouse blood at 0.2 to 0.3 uCi, iv after 30 mins; assay type: ADME, organism-based; settings: in vivo, 0.5 h
Heart [8] = assay: Biodistribution in ddY mouse heart at 0.2 to 0.3 uCi, iv after 2 mins; assay type: ADME, organism-based; settings: in vivo
Liver [9] = assay: Biodistribution in ddY mouse liver at 0.2 to 0.3 uCi, iv after 30 mins; assay type: ADME, organism-based; settings: in vivo, 0.5 h
Stomach [10] = assay: Biodistribution in ddY mouse stomach at 0.2 to 0.3 uCi, iv after 2 mins; assay type: ADME, organism-based; settings: in vivo
Lung [11] = assay: Biodistribution in ddY mouse lung at 0.2 to 0.3 uCi, iv after 30 mins; assay type: ADME, organism-based; settings: in vivo, 0.5 h
Liver [12] = assay: Biodistribution in ddY mouse liver at 0.2 to 0.3 uCi, iv after 2 mins; assay type: ADME, organism-based; settings: in vivo
Intestine [13] = assay: Biodistribution in ddY mouse intestine at 0.2 to 0.3 uCi, iv after 2 mins; assay type: ADME, organism-based; settings: in vivo
Intestine [14] = assay: Biodistribution in ddY mouse intestine at 0.2 to 0.3 uCi, iv after 30 mins; assay type: ADME, organism-based; settings: in vivo, 0.5 h
Heart [15] = assay: Biodistribution in ddY mouse heart at 0.2 to 0.3 uCi, iv after 30 mins; assay type: ADME, organism-based; settings: in vivo, 0.5 h
Spleen [16] = assay: Biodistribution in ddY mouse spleen assessed as at 0.2 to 0.3 uCi, iv after 30 mins; assay type: ADME, organism-based; settings: in vivo, 0.5 h
Stomach [17] = assay: Biodistribution in ddY mouse stomach after 30 mins; assay type: ADME, organism-based; settings: in vivo, 0.5 h
Blood [18] = assay: Biodistribution in ddY mouse blood at 0.2 to 0.3 uCi, iv after 2 mins; assay type: ADME, organism-based; settings: in vivo
[19] = Displacement of [125I](E)-3-(4-(Dimethylamino-phenyl)-1-(4-iodophenyl)prop-2-en-1-one from beta amyloid(1-42) aggregates; set-up: species or system Homo sapiens

Compound | Drug uptake (Kidney [1]) [% ID/g] | Drug uptake (Brain [2]) [% ID/g] | Drug uptake (Brain [3]) [% ID/g] | Drug uptake (Spleen [4]) [% ID/g] | Drug uptake (Lung [5]) [% ID/g] | Drug uptake (Kidney [6]) [% ID/g] | Drug uptake (Blood [7]) [% ID/g] | Drug uptake (Heart [8]) [% ID/g] | Drug uptake (Liver [9]) [% ID/g] | Drug uptake (Stomach [10]) [%ID] | Drug uptake (Lung [11]) [% ID/g] | Drug uptake (Liver [12]) [% ID/g] | Drug uptake (Intestine [13]) [% ID/g] | Drug uptake (Intestine [14]) [% ID/g] | Drug uptake (Heart [15]) [% ID/g] | Drug uptake (Spleen [16]) [% ID/g] | Drug uptake (Stomach [17]) [%ID] | Drug uptake (Blood [18]) [% ID/g] | Ki [19] [µM]
Cc1ccc2c(c1)sc(-c1ccc(N(C)C)cc1)[n+]2C [THIOFLAVIN T] | – | – | – | – | – | – | – | – | – | – | – | – | – | – | – | – | – | – | > 10
COc1ccc(/C=C/C(=O)c2ccc(I)cc2)cc1 | – | – | – | – | – | – | – | – | – | – | – | – | – | – | – | – | – | – | 0.0063
Nc1ccc(/C=C/C(=O)c2ccc([125I])cc2)cc1 | 6.96 | 0.46 | 4.49 | 1.53 | 4.74 | 6.34 | 1.46 | 4.59 | 8.16 | 0.87 | 1.43 | 7.52 | 1.84 | 11.27 | 0.84 | 0.6 | 1.58 | 3.62 | –
CNc1ccc(/C=C/C(=O)c2ccc([125I])cc2)cc1 | 6.62 | 0.61 | 4.72 | 2.85 | 8.3 | 11.43 | 1.47 | 4.72 | 8.61 | 1.02 | 4.01 | 7.2 | 2.06 | 10.46 | 1.08 | 0.8 | 1.28 | 1.64 | –
Nc1c(/N=N/c2ccc(-c3ccc(/N=N/c4cc(S(=O)(=O)O)c5ccccc5c4N)cc3)cc2)cc(S(=O)(=O)O)c2ccccc12 [CONGO RED] | – | – | – | – | – | – | – | – | – | – | – | – | – | – | – | – | – | – | > 10
COc1ccc(/C=C/C(=O)c2ccc([125I])cc2)cc1 | 4.61 | 0.22 | 2.45 | 1.38 | 3.81 | 3.27 | 0.46 | 3.74 | 4.03 | 0.9 | 0.79 | 5.97 | 1.93 | 10.19 | 0.63 | 0.29 | 2.11 | 1.34 | –

Further lines, results first:

Drug uptake (Kidney [1]) [% ID/g] | Drug uptake (Brain [2]) [% ID/g] | Drug uptake (Brain [3]) [% ID/g] | Drug uptake (Spleen [4]) [% ID/g] | Drug uptake (Lung [5]) [% ID/g] | Drug uptake (Kidney [6]) [% ID/g] | Drug uptake (Blood [7]) [% ID/g] | Drug uptake (Heart [8]) [% ID/g] | Drug uptake (Liver [9]) [% ID/g] | Drug uptake (Stomach [10]) [%ID] | Drug uptake (Lung [11]) [% ID/g] | Drug uptake (Liver [12]) [% ID/g] | Drug uptake (Intestine [13]) [% ID/g] | Drug uptake (Intestine [14]) [% ID/g] | Drug uptake (Heart [15]) [% ID/g] | Drug uptake (Spleen [16]) [% ID/g] | Drug uptake (Stomach [17]) [%ID] | Drug uptake (Blood [18]) [% ID/g] | Ki [19] [µM] | Compound
5.32 | 0.49 | 2.04 | 1.37 | 3.4 | 11.62 | 1.4 | 3.92 | 11.04 | 0.96 | 1.84 | 10.02 | 1.31 | 10.38 | 1.18 | 0.6 | 2.45 | 1.85 | – | CN(C)c1ccc(/C=C/C(=O)c2ccc([125I])cc2)cc1
9.3 | 0.4 | 3.57 | 3.56 | 10.04 | 3.51 | 0.57 | 5.92 | 6.64 | 1.22 | 1.04 | 8.39 | 1.87 | 12.94 | 0.49 | 1.04 | 2.16 | 1.89 | – | O=C(/C=C/c1ccc(O)cc1)c1ccc([125I])cc1
– | – | – | – | – | – | – | – | – | – | – | – | – | – | – | – | – | – | 0.0029 | CN(C)c1ccc(/C=C/C(=O)c2ccc(I)cc2)cc1
– | – | – | – | – | – | – | – | – | – | – | – | – | – | – | – | – | – | 0.0214 | O=C(/C=C/c1ccc(O)cc1)c1ccc(I)cc1
– | – | – | – | – | – | – | – | – | – | – | – | – | – | – | – | – | – | 0.105 | Nc1ccc(/C=C/C(=O)c2ccc(I)cc2)cc1
– | – | – | – | – | – | – | – | – | – | – | – | – | – | – | – | – | – | 0.0063 | CNc1ccc(/C=C/C(=O)c2ccc(I)cc2)cc1
